Inconclusive results and toxic doses are left out. No stated cut-off is given here; in the data, active means T/C of 150% or more; inactive means T/C below 125%.
Test system: L1210 leukemia ip in BDF1 mice, survival T/C
Assay: NCI In Vivo Anticancer Drug Screen. Data for tumor model L1210 Leukemia (intraperitoneal) in B6D2F1 (BDF1) mice
Conditions: endpoint: mean survival time, higher = longer survival
Summary of the method: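 Value reflects the ratio of survival in compound-treated mice to survival in vehicle-treated controls, with both groups carrying the same transplanted tumor.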

[1] = dose: 100.0 mg/kg/injection, schedule: Q01DX009 (ip), vehicle: Klucel (hydroxypropylcellulose) (HPC)
[2] = dose: 200.0 mg/kg/injection, schedule: Q01DX009 (ip), vehicle: Klucel (hydroxypropylcellulose) (HPC)
[3] = dose: 400.0 mg/kg/injection, schedule: Q01DX009 (ip), vehicle: Klucel (hydroxypropylcellulose) (HPC)

Measured: T/C

CC(=O)c1cccc(NC(=O)Nc2cccc(C)n2)c1
inactive: [1] 106 % of control | [2] 102 % of control | [3] 101 % of control

COc1ccc(NC(=O)Nc2ccc(SC)cc2)c(Cl)c1
inactive: [1] 107 % of control | [2] 93 % of control | [3] 104 % of control

Clc1ccc(-c2nnc(-c3cccc4ccccc34)o2)cc1Cl
inactive: dose: 100.0 mg/kg/injection, schedule: Q01DX009 (ip), vehicle: saline with Tween-80 89 % of control | dose: 100.0 mg/kg/injection, schedule: Q04DX003 (ip), vehicle: saline with Tween-80 86 % of control | dose: 200.0 mg/kg/injection, schedule: Q04DX003 (ip), vehicle: saline with Tween-80 92 % of control | dose: 400.0 mg/kg/injection, schedule: Q01DX009 (ip), vehicle: saline with Tween-80 86 % of control | dose: 400.0 mg/kg/injection, schedule: Q04DX003 (ip), vehicle: saline with Tween-80 86 % of control

BrC1CCCCCCC1Br (stereo not drawn)
inactive: dose: 25.0 mg/kg/injection, schedule: Q04DX003 (ip), vehicle: saline 102 % of control | dose: 50.0 mg/kg/injection, schedule: Q04DX003 (ip), vehicle: saline 96 % of control | dose: 100.0 mg/kg/injection, schedule: Q04DX003 (ip), vehicle: saline 91 % of control

CCC(CC)=NNc1ccc([N+](=O)[O-])cc1[N+](=O)[O-]
inactive: dose: 100.0 mg/kg/injection, schedule: Q01DX001 (ip), vehicle: saline 95 % of control | dose: 200.0 mg/kg/injection, schedule: Q01DX001 (ip), vehicle: saline 97 % of control | dose: 400.0 mg/kg/injection, schedule: Q01DX001 (ip), vehicle: saline 97 % of control

Cc1ccc(S(=O)(=O)Nc2ccc(OS(=O)(=O)c3ccc(C)cc3)cc2)cc1
inactive: dose: 100.0 mg/kg/injection, schedule: Q01DX001 (ip), vehicle: carboxymethylcellulose (CMC) 108 % of control | dose: 200.0 mg/kg/injection, schedule: Q01DX001 (ip), vehicle: carboxymethylcellulose (CMC) 100 % of control | dose: 400.0 mg/kg/injection, schedule: Q01DX001 (ip), vehicle: carboxymethylcellulose (CMC) 100 % of control

CCOC(=N)C(O)c1ccccc1 (stereo not drawn)
inactive: dose: 100.0 mg/kg/injection, schedule: Q04DX002 (ip), vehicle: saline with Tween-80 111 % of control | dose: 200.0 mg/kg/injection, schedule: Q04DX002 (ip), vehicle: saline with Tween-80 100 % of control | dose: 400.0 mg/kg/injection, schedule: Q04DX002 (ip), vehicle: saline with Tween-80 100 % of control
